Experimental data reported in patent publication US4061645A, “2-Trichloromethyl-5-methylsulfinyl-1,3,4-thiadiazole” (Schering Aktiengesellschaft, priority 1972, dated 1977).
Read-outs that look alike come from different tables or passages of the source.

Assays:
Rhizoctonia solani = test: Limit concentration of soil-fungicidal effectiveness, Rhizoctonia solani, infested soil seeded with peas (Example 1); format: in vivo; conditions: soil, 480 h, read-out: Limit concentration of the fungicidal effectiveness
Method: Limit concentrations of the soil-fungicidal effectiveness at homogeneous mixture of the products with the infested soil. Basic condition in the evaluation are a sound root formation without fungus necroses and germination of the seed of at least 90% compared with the result obtained in steamed soil. Per concentration there were seeded 25 grains of peas of the variety "Miracle of Kelvedon" (marrow pea) without a waiting period. The cultivation time in the tests was 20 to 23 days at a temperature of 22°-25° C. Four commercial products were included in the test series.
Rhizoctania solani: -- Steamed compost soil was inoculated with mycelium of Rhizoctonia solani.

Stemphylium ilicis = test: Agar test (Example 7), Stemphylium; format: cell-based; conditions: 10 ppm; 5 days at 22° C; control 100
Method: (§1) The fungicidal action of the agents according to the invention was tested in artificial nutrient media against plant-pathogenic fungi in Petri dishes (agar test). The procedure was to sterilize the medium consisting of 2% malt extract and 1.5% agar-agar powder. Before the solidification of the medium, the active substances were added to it, mixing thoroughly, so that the medium received 10 parts of active substance per million (ppm). After the solidification of the medium, the latter was inoculated with a platinum dropper which contained 100 spores each of the fungi to be tested, and after five days at 22° C, an evaluation was made by measuring the diameter of the colonies in mm.

Helminthosporium sativum = test: Agar test (Example 7), Helminthosporium; format: cell-based; conditions: 10 ppm; 5 days at 22° C; control 100
Method: as §1

Botrytis cinerea = test: Agar test (Example 7), Botrytis; format: cell-based; conditions: 10 ppm; 5 days at 22° C; control 100
Method: as §1

Asperqilus niger = test: Agar test (Example 7), Aspergillus; format: cell-based; conditions: 10 ppm; 5 days at 22° C; control 100
Method: as §1

[1] = system: Colletotrichum gloeosporioides; test: Agar test (Example 7), Colletotrichum; format: cell-based; conditions: 10 ppm; 5 days at 22° C; control 100
Method: as §1

Pythium ultimum = Pythium ultimum infested compost soil, marrow peas (Example 2); format: in vivo; conditions: for Weight of fresh plant: 3 weeks; for Number of sound peas after 3 wks.: of 25 grains
From the text: Steamed compost soil was inoculated with mycelium of Pythium ultimum.

[2] = system: Fusarium oxysporum f. callistephi; test: Fusarium infested compost soil, Callistephus chinesis seedlings (Example 5); format: in vivo; conditions: of 4 seedlings
From the text: Steamed compost soil was inoculated with a spore suspension of Fusarium oxysporum f. callistephi. After homogeneous mixture of the products with the infested soil, the products were present as 20% powder preparations, and after a waiting period of 8 days, there were set out per concentration 4 seedlings of Callistephus chinesis, master aster "Sun Ray" as host plants.

[3] = 200 mg active ingr. per liter of soil
[4] = 10 mg active ingr. per liter of soil
[5] = 20 mg active ingr. per liter of soil
[6] = 30 mg active ingr. per liter of soil

Structure (SMILES): CC(C)[S+]([O-])c1nnc(C(Cl)Cl)s1 (stereo not shown) [Compound 6, 2-dichloromethyl-5-isopropylsulfinyl-1,3,4-thiadiazole]
- minimal effective concentration (Rhizoctonia solani; 20 to 23 days, 22°-25° C): 50 µg/mL

Structure (SMILES): CCCC[S+]([O-])c1nnc(C(Cl)(Cl)Cl)s1 (stereo not shown) [Compound 12, 2-trichloromethyl-5-butylsulfinyl-1,3,4-thiadiazole]
- diameter of the colonies (Stemphylium ilicis): 0 mm
- diameter of the colonies (Helminthosporium sativum): 0 mm
- diameter of the colonies (Botrytis cinerea): 0 mm
- minimal effective concentration (Rhizoctonia solani; 20 to 23 days, 22°-25° C): 50 µg/mL
- diameter of the colonies (Asperqilus niger): 0 mm
- diameter of the colonies [1]: 0 mm

Structure (SMILES): CS(=O)(=O)c1nnc(CF)s1 [Compound 34, 2-fluoromethyl-5-methylsulfonyl-1,3,4-thiadiazole]
- minimal effective concentration (Rhizoctonia solani; 20 to 23 days, 22°-25° C): 30 µg/mL

Structure (SMILES): CS(=O)(=O)c1nnc(C(Br)Br)s1 [Compound 32, 2-dibromomethyl-5-methylsulfonyl-1,3,4-thiadiazole]
- diameter of the colonies (Stemphylium ilicis): 0 mm
- diameter of the colonies (Helminthosporium sativum): 0 mm
- diameter of the colonies (Botrytis cinerea): 0 mm
- minimal effective concentration (Rhizoctonia solani; 20 to 23 days, 22°-25° C): 50 µg/mL
- diameter of the colonies (Asperqilus niger): 0 mm
- diameter of the colonies [1]: 0 mm

Structure (SMILES): C[S+]([O-])c1nnc(CCl)s1 (stereo not shown) [Compound 2, 2-chloromethyl-5-methylsulfinyl-1,3,4-thiadiazole]
- minimal effective concentration (Rhizoctonia solani; 20 to 23 days, 22°-25° C): 50 µg/mL

Structure (SMILES): CCCCCCC[S+]([O-])c1nnc(C(Cl)(Cl)Cl)s1 (stereo not shown) [Compound 13, 2-trichloromethyl-5-heptylsulfinyl-1,3,4-thiadiazole]
- diameter of the colonies (Stemphylium ilicis): 0 mm
- diameter of the colonies (Helminthosporium sativum): 0 mm
- diameter of the colonies (Botrytis cinerea): 13 mm
- minimal effective concentration (Rhizoctonia solani; 20 to 23 days, 22°-25° C): 200 µg/mL
- diameter of the colonies (Asperqilus niger): 0 mm
- diameter of the colonies [1]: 0 mm

Structure (SMILES): CC(Br)c1nnc(S(C)(=O)=O)s1 (stereo not shown) [Compound 50, 2-(1-bromoethyl)-5-methylsulfonyl-1,3,4-thiadiazole]
- minimal effective concentration (Rhizoctonia solani; 20 to 23 days, 22°-25° C): 100 µg/mL

Structure (SMILES): CC(C)S(=O)(=O)c1nnc(C(F)(F)F)s1 [Compound 41, 2-trifluoromethyl-5-isopropylsulfonyl-1,3,4-thiadiazole]
- minimal effective concentration (Rhizoctonia solani; 20 to 23 days, 22°-25° C): 20 µg/mL

Structure (SMILES): CCCCCCS(=O)(=O)c1nnc(C(F)(F)F)s1 [Compound 43, 2-trifluoromethyl-5-hexylsulfonyl-1,3,4-thiadiazole]
- minimal effective concentration (Rhizoctonia solani; 20 to 23 days, 22°-25° C): 50 µg/mL

Structure (SMILES): C[S+]([O-])c1nnc(CF)s1 (stereo not shown) [Compound 33, 2-fluoromethyl-5-methylsulfinyl-1,3,4-thiadiazole]
- minimal effective concentration (Rhizoctonia solani; 20 to 23 days, 22°-25° C): 20 µg/mL

Structure (SMILES): CCCCCS(=O)(=O)c1nnc(C(Cl)(Cl)Cl)s1 [Compound 26, 2-trichloromethyl-5-amylsulfonyl-1,3,4-thiadiazole]
- diameter of the colonies (Stemphylium ilicis): 0 mm
- diameter of the colonies (Helminthosporium sativum): 0 mm
- diameter of the colonies (Botrytis cinerea): 0 mm
- minimal effective concentration (Rhizoctonia solani; 20 to 23 days, 22°-25° C): 25 µg/mL
- diameter of the colonies (Asperqilus niger): 0 mm
- diameter of the colonies [1]: 0 mm

Structure (SMILES): CCCCCCS(=O)(=O)c1nnc(C(Cl)(Cl)Cl)s1 [Compound 27, 2-trichloromethyl-5-hexylsulfonyl-1,3,4-thiadiazole]
- diameter of the colonies (Stemphylium ilicis): 0 mm
- diameter of the colonies (Helminthosporium sativum): 0 mm
- diameter of the colonies (Botrytis cinerea): 0 mm
- minimal effective concentration (Rhizoctonia solani; 20 to 23 days, 22°-25° C): 25 µg/mL
- diameter of the colonies (Asperqilus niger): 0 mm
- diameter of the colonies [1]: 0 mm

Structure (SMILES): CCC(Cl)c1nnc([S+](C)[O-])s1 (stereo not shown) [Compound 48, 2-(1-chloropropyl)-5-methylsulfinyl-1,3,4-thiadiazole]
- minimal effective concentration (Rhizoctonia solani; 20 to 23 days, 22°-25° C): 100 µg/mL

Structure (SMILES): CCS(=O)(=O)c1nnc(CBr)s1 [Compound 31, 2-bromomethyl-5-ethylsulfonyl-1,3,4-thiadiazole]
- minimal effective concentration (Rhizoctonia solani; 20 to 23 days, 22°-25° C): > 200 µg/mL

Structure (SMILES): CC(C)C(Br)c1nnc(S(C)(=O)=O)s1 (stereo not shown) [Compound 51, 2-(1-bromisobutyl)-5-methylsulfonyl-1,3,4-thiadiazole]
- minimal effective concentration (Rhizoctonia solani; 20 to 23 days, 22°-25° C): 50 µg/mL

Structure (SMILES): CCCCCCCCS(=O)(=O)c1nnc(C(Cl)(Cl)Cl)s1 [Compound 29, 2-trichloromethyl-5-octylsulfonyl-1,3,4-thiadiazole]
- diameter of the colonies (Stemphylium ilicis): 0 mm
- diameter of the colonies (Helminthosporium sativum): 0 mm
- diameter of the colonies (Botrytis cinerea): 18 mm
- minimal effective concentration (Rhizoctonia solani; 20 to 23 days, 22°-25° C): > 200 µg/mL
- diameter of the colonies (Asperqilus niger): 19 mm
- diameter of the colonies [1]: 0 mm

Structure (SMILES): CCCCCCCC[S+]([O-])c1nnc(C(Cl)(Cl)Cl)s1 (stereo not shown) [Compound 14, 2-trichloromethyl-5-octylsulfinyl-1,3,4-thiadiazole]
- minimal effective concentration (Rhizoctonia solani; 20 to 23 days, 22°-25° C): 100 µg/mL

Structure (SMILES): O=C1C2CC=CCC2C(=O)N1SC(Cl)(Cl)Cl (stereo not shown) [N-(trichloromethylthio)-cyclohex-4-ene-1,2-dicarboximide, reference compound]
- Weight of fresh plant (Pythium ultimum; [3]): 6 g
- Number of sound peas after 3 wks. (Pythium ultimum; [3]): 13
- minimal effective concentration (Rhizoctonia solani): 300 µg/mL
- Number of attacked plants after 3 weeks ([2]; 50 mg active ingredient per liter of soil): 4
- Number of attacked plants after 3 weeks ([2]; 100 mg active ingredient per liter of soil): 4
- Number of attacked plants after 3 weeks ([2]; 200 mg active ingredient per liter of soil): 4

Structure (SMILES): CCCCC[S+]([O-])c1nnc(C(F)(F)F)s1 (stereo not shown) [Compound 38, 2-trifluoromethyl-5-pentylsulfinyl-1,3,4-thiadiazole]
- minimal effective concentration (Rhizoctonia solani; 20 to 23 days, 22°-25° C): 40 µg/mL

Structure (SMILES): CS(=O)(=O)c1nnc(C(F)(F)C(F)(F)C(F)(F)F)s1 [Compound 46, 2-heptafluoropropyl-5-methylsulfonyl-1,3,4-thiadiazole]
- minimal effective concentration (Rhizoctonia solani): 100 µg/mL

Structure (SMILES): CC(C)[S+]([O-])c1nnc(C(Cl)(Cl)Cl)s1 (stereo not shown) [Compound 11, 2-trichloromethyl-5-isopropylsulfinyl-1,3,4-thiadiazole]
- minimal effective concentration (Rhizoctonia solani; 20 to 23 days, 22°-25° C): 50 µg/mL

Structure (SMILES): CS(=O)(=O)c1nnc(C(F)(F)C(F)(F)F)s1 [Compound 45, 2-pentafluoroethyl-5-methylsulfonyl-1,3,4-thiadiazole]
- minimal effective concentration (Rhizoctonia solani; 20 to 23 days, 22°-25° C): > 100 µg/mL

Structure (SMILES): CCS(=O)(=O)c1nnc(C(F)(F)F)s1 [Compound 40, 2-trifluoromethyl-5-ethylsulfonyl-1,3,4-thiadiazole]
- minimal effective concentration (Rhizoctonia solani; 20 to 23 days, 22°-25° C): 20 µg/mL

Structure (SMILES): CC(C)CS(=O)(=O)c1nnc(C(F)(F)F)s1 [Compound 42, 2-trifluoromethyl-5-isobutylsulfonyl-1,3,4-thiadiazole]
- minimal effective concentration (Rhizoctonia solani; 20 to 23 days, 22°-25° C): 100 µg/mL

Structure (SMILES): CCCCCCCS(=O)(=O)c1nnc(C(F)(F)F)s1 [Compound 44, 2-trifluoromethyl-5-heptylsulfonyl-1,3,4-thiadiazole]
- minimal effective concentration (Rhizoctonia solani; 20 to 23 days, 22°-25° C): 50 µg/mL

Structure (SMILES): CC[S+]([O-])c1nnc(C(F)(F)F)s1 (stereo not shown) [Compound 36, 2-trifluoromethyl-5-ethylsulfinyl-1,3,4-thiadiazole]
- minimal effective concentration (Rhizoctonia solani; 20 to 23 days, 22°-25° C): 20 µg/mL

Structure (SMILES): CCCCCC[S+]([O-])c1nnc(C(F)(F)F)s1 (stereo not shown) [Compound 39, 2-trifluoromethyl-5-hexylsulfinyl-1,3,4-thiadiazole]
- minimal effective concentration (Rhizoctonia solani; 20 to 23 days, 22°-25° C): 40 µg/mL

Structure (SMILES): CCC(Cl)c1nnc(S(C)(=O)=O)s1 (stereo not shown) [Compound 49, 2-(1-chloropropyl)-5-methylsulfonyl-1,3,4-thiadiazole]
- minimal effective concentration (Rhizoctonia solani; 20 to 23 days, 22°-25° C): 50 µg/mL

Structure (SMILES): CC(C)C[S+]([O-])c1nnc(C(F)(F)F)s1 (stereo not shown) [Compound 37, 2-trifluoromethyl-5-isobutylsulfinyl-1,3,4-thiadiazole]
- minimal effective concentration (Rhizoctonia solani; 20 to 23 days, 22°-25° C): 100 µg/mL

Structure (SMILES): CC(Cl)(Cl)c1nnc(S(C)(=O)=O)s1 [Compound 47, 2-(1,1-dichloroethyl)-5-methylsulfonyl-1,3,4-thiadiazole]
- minimal effective concentration (Rhizoctonia solani; 20 to 23 days, 22°-25° C): 50 µg/mL

Structure (SMILES): CC(C)S(=O)(=O)c1nnc(C(Cl)Cl)s1 [Compound 20, 2-dichloromethyl-5-isopropylsulfonyl-1,3,4-thiadiazole]
- minimal effective concentration (Rhizoctonia solani; 20 to 23 days, 22°-25° C): 50 µg/mL

Structure (SMILES): CS(=O)(=O)c1nnc(CCl)s1 [Compound 15, 2-chloromethyl-5-methylsulfonyl-1,3,4-thiadiazole]
- Weight of fresh plant (Pythium ultimum; [4]): 20 g
- Number of sound peas after 3 wks. (Pythium ultimum; [4]): 22
- Weight of fresh plant (Pythium ultimum; [5]): 20 g
- Number of sound peas after 3 wks. (Pythium ultimum; [5]): 23
- Weight of fresh plant (Pythium ultimum; [6]): 20 g
- Number of sound peas after 3 wks. (Pythium ultimum; [6]): 24
- minimal effective concentration (Rhizoctonia solani; 20 to 23 days, 22°-25° C): 100 µg/mL

Structure (SMILES): CS(=O)(=O)c1nnc(CBr)s1 [Compound 30, 2-bromomethyl-5-methylsulfonyl-1,3,4-thiadiazole]
- Weight of fresh plant (Pythium ultimum; [4]): 18 g
- Number of sound peas after 3 wks. (Pythium ultimum; [4]): 21
- Weight of fresh plant (Pythium ultimum; [5]): 24 g
- Number of sound peas after 3 wks. (Pythium ultimum; [5]): 24
- Weight of fresh plant (Pythium ultimum; [6]): 18 g
- Number of sound peas after 3 wks. (Pythium ultimum; [6]): 22
- minimal effective concentration (Rhizoctonia solani; 20 to 23 days, 22°-25° C): 150 µg/mL

Structure (SMILES): C[S+]([O-])c1nnc(C(F)(F)F)s1 (stereo not shown) [Compound 35, 2-trifluoromethyl-5-methylsulfinyl-1,3,4-thiadiazole]
- minimal effective concentration (Rhizoctonia solani; 20 to 23 days, 22°-25° C): 20 µg/mL

Structure (SMILES): CC(C)S(=O)(=O)c1nnc(CCl)s1 [Compound 16, 2-chloromethyl-5-isopropylsulfonyl-1,3,4-thiadiazole]
- minimal effective concentration (Rhizoctonia solani; 20 to 23 days, 22°-25° C): 200 µg/mL
